Legend:
Assay type in all cases: biochemical, Human Immunodeficiency Virus (HIV-1)
HIV-1 RT Y188L = target: T1, HIV-1 RT Y188L (Human immunodeficiency virus type 1 group M subtype B, UniProt P03367, Y787L); assay: Reverse Transcriptase (RT) Assay, Y188L mutant enzyme; conditions: 1 µM compound
T1 construct: effective against the reverse transcriptase of many mutant viruses; made in house

[1] = target: T2, HIV-1 RT wild type (WT) enzyme (Human immunodeficiency virus type 1 group M subtype B, UniProt P03367); assay: Reverse Transcriptase (RT) Assay, wild type enzyme (RNA-dependent DNA polymerase activity); conditions: 1 µM compound; for inhibition at 1 µM: read-out: Reverse Transciptase Assay % inhibition (1 µM) WT
T2 construct: Reverse transcriptase enzyme from the LAV strain of Human Immunodeficiency Virus (HIV-1) (1) was isolated from the bacterial strain JM109; made in house; host or cells: E. coli JM109 (clone pBRTprt1+ in vector pIBI21, lac promoter)
Description: Utilizing the Reverse Transcriptase (RT) Assay described below, compounds can be tested for their ability to inhibit the RNA-dependent DNA polymerase activity of HIV-1 RT. Certain specific compounds described in the Examples which appear below, were so tested.
(§1) Among the enzymes for which Human Immunodeficiency Virus (HIV-1) encodes is a reverse transcriptase (1), so-named because it transcribes a DNA copy from an RNA template. This activity can be quantitatively measured in a cell-free enzyme assay, which has been previously described (2), and is based upon the observation that reverse transcriptase is able to use a synthetic template [poly r(C) primed with oligo d(G)] to transcribe a radio-labelled, acid-precipitable DNA strand utilizing ^3H-dGTP as a substrate. The assay described below utilizes the wild type (WT) enzyme, which is the predominant form of the enzyme observed in patients infected with HIV-1. Utilization of mutant RT eraymes (Y181C and Y181L, prepared by site-directed mutagenesis in which the tyrosine residue at codon 181 has been replaced by a cysteine or a leucine residue, respectively) and analogous assay conditions allows compounds to be evaluated for their effectiveness at inhibiting these mutant enzymes.
Reverse transcriptase enzyme from the LAV strain of Human Immunodeficiency Virus (HIV-1) (1) was isolated from the bacterial strain JM109 (3) expressing the DNA clone pBRTprt1+ (2) which is under the control of the lac promotor in the expression vector pIBI21 (4). An overnight culture grown in 2XYT medium (37°C, 225 rpm) (5) supplemented with 100 µg/mL ampicillin for positive selection is inoculated at a 1:40 dilution into M9 medium supplemented with 10µg/mL thiamine, 0.5% casamino acids, and 50 µg/mL ampicillin (5). The culture is incubated (37°C, 225 rpm) until it reaches an OD540 of 0.3-0.4. At that time the repressor inhibitor IPTG (isopropyl β-D-thiogalactopyranoside) is added to 0.5mM, and the mixture is incubated for 2 additional hours. Bacteria are pelleted, resuspended in a 50mM Tris, 0.6mM EDTA, 0.375M NaCl buffer and digested by the addition of lysozyme (1mg/mL) for 30 minutes on ice. The cells are lysed by the addition of 0.2% NP-40 and brought to 1M NaCl.
After removal of the insoluble debris by centrifugation, the protein is precipitated by the addition of 3 volumes of saturated aqueous ammonium sulfate. The enzyme is pelleted, resuspended in RT buffer (50mM Tris pH 7.5, 1mM EDTA, 5mM DTT, 0.1% NP-40, 0.1M NaCI, and 50% glycerol), and stored at -70°C for further use.
The 2X concentrated stock reaction mixture is aliquoted and stored at -20°C. The mixture is stable and thawed for use in each assay. This enzyme assay has been adapted to a 96 well microtiter plate system, and has been previously described (6). Tris buffer (50 mM, pH 7.4), vehicle (solvent diluted to match the compound dilution), or compounds in vehicle are dispensed into 96-well microtiter plates (10µL/well; 3 wells/ compound). The HIV-1 RT enzyme is thawed, diluted in 50mM Tris pH 7.4 so that fifteen µL of diluted enzyme contain 0.001 Unit (one unit is that amount of enzyme to transform 1 micromole of substrate per minute at 25°C), and fifteen µL are dispensed per well. Twenty µL of 0.12-0.5M EDTA are added to the first three wells of the microtiter plate. EDTA chelates the Mg^++ present and prevents reverse transcription. This group serves as background polymerization which is subtracted from all other groups. Twenty-five ul of the 2X reaction mixture are added to all wells and the assay is allowed to incubate at room temperature for 60 minutes. The assay is terminated by precipitating the DNA in each well with 50µL of 10% trichloracetic acid (TCA) (10% w/v) in sodium pyrophosphate (1% w/v). The microtiter plate is incubated for 15 minutes at 4°C and the precipitate is fixed onto #30 glass fiber paper (Schleicher & Schuell) using a Skatron semi-automatic harvester. […]

HIV-1 RT Y181C = target: T3, HIV-1 RT Y181C (Human immunodeficiency virus type 1 group M subtype B, UniProt P03367, Y780C); assay: Reverse Transcriptase (RT) Assay, Y181C mutant enzyme; conditions: 1 µM compound; for inhibition at 1 µM: read-out: Reverse Transciptase Assay % inhibition (1 µM) Y181C
T3 construct: Utilization of mutant RT eraymes (Y181C and Y181L, prepared by site-directed mutagenesis); made in house
Description: as §1
The 2X concentrated stock reaction mixture is aliquoted and stored at -20°C. The mixture is stable and thawed for use in each assay. This enzyme assay has been adapted to a 96 well microtiter plate system, and has been previously described (6). Tris buffer (50 mM, pH 7.4), vehicle (solvent diluted to match the compound dilution), or compounds in vehicle are dispensed into 96-well microtiter plates (10µL/well; 3 wells/ compound). The HIV-1 RT enzyme is thawed, diluted in 50mM Tris pH 7.4 so that fifteen µL of diluted enzyme contain 0.001 Unit (one unit is that amount of enzyme to transform 1 micromole of substrate per minute at 25°C), and fifteen µL are dispensed per well. Twenty µL of 0.12-0.5M EDTA are added to the first three wells of the microtiter plate. EDTA chelates the Mg^++ present and prevents reverse transcription. This group serves as background polymerization which is subtracted from all other groups. Twenty-five ul of the 2X reaction mixture are added to all wells and the assay is allowed to incubate at room temperature for 60 minutes. The assay is terminated by precipitating the DNA in each well with 50µL of 10% trichloracetic acid (TCA) (10% w/v) in sodium pyrophosphate (1% w/v). The microtiter plate is incubated for 15 minutes at 4°C and the precipitate is fixed onto #30 glass fiber paper (Schleicher & Schuell) using a Skatron semi-automatic harvester. The filters are then washed with additional TCA (5%) containing sodium pyrophosphate (1%), rinsed with aqueous ethanol (70%), dried, and transferred to scintillation vials (6). Each vial receives 2 mL of scintillation cocktail and is counted in a Beckman beta counter. The calculation for percent inhibition is as follows: % inhibition =(CPM Mean Test Value - CPM Mean Control Value X100)/(CPM Mean Control Value) [formula]

For “2-(1-Carbamylpyrazol-3-yl)-5,11-dihydro-11-ethyl-5-methyl-6H-dipyrido[3,2-b:2',3'-e][1,4]-diazepin-6-one [Example 7]”, the “Reverse Transciptase Assay % inhibition (1 µM) Y188L” value (HIV-1 RT Y188L) was 52%, the “Reverse Transciptase Assay % inhibition (1 µM) WT” value [1] was 94% and the “Reverse Transciptase Assay % inhibition (1 µM) Y181C” value (HIV-1 RT Y181C) was 84%.

`CCN1c2ncccc2C(=O)N(C)c2ccc(-c3cnn(C)c3)nc21` [Example 3, 5,11-Dihydro-11-ethyl-5-methyl-2-(1-methylpyrazol-4-yl)-6H-dipyrido[3,2-b:2',3'-e][1,4]-diazepin-6-one] was tested, and the “Reverse Transciptase Assay % inhibition (1 µM) Y188L” value (HIV-1 RT Y188L) was 24%, the inhibition at 1 µM [1] was 63% and the inhibition at 1 µM (HIV-1 RT Y181C) was 36%.

`CCN1c2ncccc2C(=O)N(C)c2ccc(-c3cnn(C(C)=O)c3)nc21` [Example 8, 2-(1-Acetylpyrazol-4-yl)-5,11-dihydro-11-ethyl-5-methyl-6H-dipyrido[3,2-b:2',3'-e][1,4] diazepin-6-one] was tested, and the “Reverse Transciptase Assay % inhibition (1 µM) Y188L” value (HIV-1 RT Y188L) was 80%, the inhibition at 1 µM [1] was 96% and the inhibition at 1 µM (HIV-1 RT Y181C) was 80%.

In the case of `CCN1c2ncccc2C(=O)N(C)c2ccc(-c3cc[nH]n3)nc21` [Example 9, 5,11-Dihydro-11-ethyl-5-methyl-2-(3-pyrazolyl)-6H-dipyrido[3,2-b:2',3'-e][1,4]diazepin-6-one], the “Reverse Transciptase Assay % inhibition (1 µM) Y188L” value (HIV-1 RT Y188L) is reported as 20%, the inhibition at 1 µM [1] is reported as 67% and the inhibition at 1 µM (HIV-1 RT Y181C) is reported as 67%.

For `CCN1c2ncccc2C(=O)N(C)c2ccc(-c3c[nH]nc3C)nc21` [Example 10, 5,11-Dihydro-11-ethyl-5-methyl-2-(3-methylpyrazol-4-yl)-6H-dipyrido[3,2-b:2',3'-e][1,4]-diazepin-6-one], the “Reverse Transciptase Assay % inhibition (1 µM) Y188L” value (HIV-1 RT Y188L) was 66%, the inhibition at 1 µM [1] was 94% and the inhibition at 1 µM (HIV-1 RT Y181C) was 73%.

Compound `CCN1c2ncccc2C(=O)N(C)c2ccc(-c3cccn3C)nc21` [Example 11, 5,11-Dihydro-11-ethyl-5-methyl-2-(1-methylpyrrol-2-yl)-6H-dipyrido[3,2-b:2',3'-e][1,4]-diazepin-6-one] has an inhibition at 1 µM [1] of 81%.

In the case of `CCN1c2ncccc2C(=O)N(C)c2ccc(-c3cccn3C(C)=O)nc21` [Example 14, 2-(1-Acetylpyrrol-2-yl)-5,11-dihydro-11-ethyl-5-methyl-6H-dipyrido[3,2-b:2',3'-e][1,4]-diazepin-6-one], the “Reverse Transciptase Assay % inhibition (1 µM) Y188L” value (HIV-1 RT Y188L) is reported as 23%, the inhibition at 1 µM [1] is reported as 74% and the inhibition at 1 µM (HIV-1 RT Y181C) is reported as 51%.

For `CCN1c2ncccc2C(=O)N(C)c2ccc(-c3cc[nH]c3C(C)=O)nc21` [Example 15, 2-(2-Acetylpyrrol-3-yl)-5,11-dihydro-11-ethyl-5-methyl-6H-dipyrido[3,2-b:2',3'-e][1,4]-diazepin-6-one], the “Reverse Transciptase Assay % inhibition (1 µM) Y188L” value (HIV-1 RT Y188L) was 10%, the inhibition at 1 µM [1] was 52% and the inhibition at 1 µM (HIV-1 RT Y181C) was 59%.

Compound `CCOC(=O)c1cc(-c2ccc3c(n2)N(CC)c2ncccc2C(=O)N3C)c[nH]1` [Example 16, 5,11-Dihydro-2-[2-(ethoxycarbonyl)pyrrol-4-yl]-11-ethyl-5-methyl-6H-dipyrido-[3,2-b:2',3'-e][1,4]diazepin-6-one] has an inhibition at 1 µM [1] of 83% and an inhibition at 1 µM (HIV-1 RT Y181C) of 74%.

`CCN1c2ncccc2C(=O)N(C)c2ccc(-c3c[nH]c(C(C)=O)c3)nc21` [Example 17, 2-(2-Acetylpyrrol-4-yl)-5,11-dihydro-11-ethyl-5-methyl-6H-dipyrido[3,2-b:2',3'-e][1,4]-diazepin-6-one] was tested, and the “Reverse Transciptase Assay % inhibition (1 µM) Y188L” value (HIV-1 RT Y188L) was 27%, the inhibition at 1 µM [1] was 78% and the inhibition at 1 µM (HIV-1 RT Y181C) was 62%.

With `CCN1c2ncccc2C(=O)N(C)c2ccc(-c3cc[nH]c3C#N)nc21` [Example 18, 2-(2-Cyanopyrrol-3-yl)-5,11-dihydro-11-ethyl-5-methyl-6H-dipyrido[3,2-b:2',3'-e][1,4]-diazepin-6-one] the “Reverse Transciptase Assay % inhibition (1 µM) Y188L” value (HIV-1 RT Y188L) was 57%, the inhibition at 1 µM [1] was 87% and the inhibition at 1 µM (HIV-1 RT Y181C) was 82%.

`CCN1c2ncccc2C(=O)N(C)c2ccc(-c3c[nH]c(C#N)c3)nc21` [Example 19, 2-(2-Cyanopyrrol-4-yl)-5,11-dihydro-11-ethyl-5-methyl-6H-dipyrido[3,2-b:2',3'-e][1,4]-diazepin-6-one] was tested, and the “Reverse Transciptase Assay % inhibition (1 µM) Y188L” value (HIV-1 RT Y188L) was 55%, the inhibition at 1 µM [1] was 91% and the inhibition at 1 µM (HIV-1 RT Y181C) was 75%.

For `CCN1c2ncccc2C(=O)N(C)c2ccc(-c3ccn(C)c3)nc21` [Example 20, 5,11-Dihydro-11-ethyl-5-methyl-2-(1-methylpyrrol-3-yl)-6H-dipyrido[3,2-b:2',3'-e][1,4]-diazepin-6-one], the “Reverse Transciptase Assay % inhibition (1 µM) Y188L” value (HIV-1 RT Y188L) was 26%, the inhibition at 1 µM [1] was 65% and the inhibition at 1 µM (HIV-1 RT Y181C) was 36%.

In the case of `CCN1c2ncccc2C(=O)N(C)c2ccc(-c3c[nH]c(C(=O)O)c3)nc21` [Example 21, 2-(2-Carboxypyrrol-4-yl)-5,11-dihydro-11-ethyl-5-methyl-6H-dipyrido[3,2-b:2',3'-e][1,4]-diazepin-6-one], the “Reverse Transciptase Assay % inhibition (1 µM) Y188L” value (HIV-1 RT Y188L) is reported as 46%, the inhibition at 1 µM [1] is reported as 33% and the inhibition at 1 µM (HIV-1 RT Y181C) is reported as 28%.

With `CCN1c2ncccc2C(=O)N(C)c2ccc(-c3c[nH]c(C(N)=O)c3)nc21` [Example 22, 2-(2-Carbamylpyrrol-4-yl)-5,11-dihydro-11-ethyl-5-methyl-6H-dipyrido[3,2-b:2',3'-e][1,4]-diazepin-6-one] the “Reverse Transciptase Assay % inhibition (1 µM) Y188L” value (HIV-1 RT Y188L) was 30%, the inhibition at 1 µM [1] was 76% and the inhibition at 1 µM (HIV-1 RT Y181C) was 72%.

For `CCN1C(=O)c2cccnc2N(C)c2nc(-c3ccc[nH]3)ccc21` [Example 23, 5,11-Dihydro-5-ethyl-11-methyl-2-(2-pyrrolyl)-6H-dipyrido[3,2-b:2',3'-e][1,4]diazepin-6-one], the “Reverse Transciptase Assay % inhibition (1 µM) Y188L” value (HIV-1 RT Y188L) was 47%, the inhibition at 1 µM [1] was 58% and the inhibition at 1 µM (HIV-1 RT Y181C) was 37%.

Reference: patent EP0745083B1, “2-HETEROARYL-5,11-DIHYDRO-6H-DIPYRIDO [3,2-b:2',3'-e][1,4]DIAZEPINES AND THEIR USE IN THE PREVENTION OR TREATMENT OF HIV INFECTION” (BOEHRINGER INGELHEIM PHARMACEUTICALS INC., priority 1994, dated 1995)
